Test results taken from the supplement of paper PMC11061612.

Tests used:
[1] = system: BFTC-905 (Bladder Carcinoma); experiment: Bliss excess, mean over the matrix (fraction); higher = more synergy
Procedure, shortened: (§1)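 Cell lines in DMEM/F12 or RPMI with 10% FBS were plated in 1536-well plates, held 24 hours at 37°C, 5% CO2, then given two-drug dose matrices for 72 hours (DMSO typically 0.2%). Viability was read by CellTiter-Glo 2.0 luminescence and scaled as inhibition from 0 (vehicle wells) to 1 (blank wells). Combination Emax is the second-highest inhibition in the matrix; Bliss excess is observed combination effect minus expected EA + EB − EA·EB, EA and EB being single-agent effects.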

[2] = system: BL-41 (Burkitt's Lymphoma); experiment: as above
Procedure, shortened: as §1

[3] = system: CAMA-1 (Breast Carcinoma); experiment: as above
Procedure, shortened: as §1

[4] = system: DND-41 (T-Lymphoblastic Leukemia); experiment: as above
Procedure, shortened: as §1

[5] = system: ES1 (Ewing's Sarcoma); experiment: as above
Procedure, shortened: as §1

[6] = system: ES8 (Ewing's Sarcoma); experiment: as above
Procedure, shortened: as §1

[7] = system: GR-ST (B-Lymphoblastic Leukemia); experiment: as above
Procedure, shortened: as §1

[8] = system: K-562 (Chronic Myelogenous Leukemia); experiment: as above
Procedure, shortened: as §1

[9] = system: L-540 (Hodgkin's Lymphoma); experiment: as above
Procedure, shortened: as §1

[10] = system: MKN28 (Gastric Carcinoma); experiment: as above
Procedure, shortened: as §1

[11] = system: NCI-H1792 (Lung Adenocarcinoma); experiment: as above
Procedure, shortened: as §1

[12] = system: NCI-H2818 (Mesothelioma); experiment: as above
Procedure, shortened: as §1

[13] = system: SR (Other Blood Carcinomas); experiment: as above
Procedure, shortened: as §1

[14] = system: SW1417 (Colorectal Carcinoma); experiment: as above
Procedure, shortened: as §1

[15] = system: SW837 (Colorectal Carcinoma); experiment: as above
Procedure, shortened: as §1

[16] = system: WIL2-NS (Non-Cancerous); experiment: as above
Procedure, shortened: as §1

[17] = system: WM-115 (Melanoma); experiment: as above
Procedure, shortened: as §1

[18] = system: BFTC-905 (Bladder Carcinoma); experiment: combination Emax (second highest fraction inhibited in the dose matrix, 72 h); higher = more inhibition; extreme values may be limits of the assay
Procedure, shortened: as §1

[19] = system: BL-41 (Burkitt's Lymphoma); experiment: as above
Procedure, shortened: as §1

[20] = system: CAMA-1 (Breast Carcinoma); experiment: as above
Procedure, shortened: as §1

[21] = system: DND-41 (T-Lymphoblastic Leukemia); experiment: as above
Procedure, shortened: as §1

[22] = system: ES1 (Ewing's Sarcoma); experiment: as above
Procedure, shortened: as §1

[23] = system: ES8 (Ewing's Sarcoma); experiment: as above
Procedure, shortened: as §1

[24] = system: GR-ST (B-Lymphoblastic Leukemia); experiment: as above
Procedure, shortened: as §1

[25] = system: K-562 (Chronic Myelogenous Leukemia); experiment: as above
Procedure, shortened: as §1

[26] = system: L-540 (Hodgkin's Lymphoma); experiment: as above
Procedure, shortened: as §1

[27] = system: MKN28 (Gastric Carcinoma); experiment: as above
Procedure, shortened: as §1

[28] = system: NCI-H1792 (Lung Adenocarcinoma); experiment: as above
Procedure, shortened: as §1

[29] = system: NCI-H2818 (Mesothelioma); experiment: as above
Procedure, shortened: as §1

[30] = system: SR (Other Blood Carcinomas); experiment: as above
Procedure, shortened: as §1

[31] = system: SW1417 (Colorectal Carcinoma); experiment: as above
Procedure, shortened: as §1

[32] = system: SW837 (Colorectal Carcinoma); experiment: as above
Procedure, shortened: as §1

[33] = system: WIL2-NS (Non-Cancerous); experiment: as above
Procedure, shortened: as §1

[34] = system: WM-115 (Melanoma); experiment: as above
Procedure, shortened: as §1
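For Bliss excess, mean over the matrix in this document: after 72 h of two-drug dosing.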

SMILES | Bliss excess [1] | Bliss excess [2] | Bliss excess [3] | Bliss excess [4] | Bliss excess [5] | Bliss excess [6] | Bliss excess [7] | Bliss excess [8] | Bliss excess [9] | Bliss excess [10] | Bliss excess [11] | Bliss excess [12] | Bliss excess [13] | Bliss excess [14] | Bliss excess [15] | Bliss excess [16] | Bliss excess [17] | combination Emax [18] | combination Emax [19] | combination Emax [20] | combination Emax [21] | combination Emax [22] | combination Emax [23] | combination Emax [24] | combination Emax [25] | combination Emax [26] | combination Emax [27] | combination Emax [28] | combination Emax [29] | combination Emax [30] | combination Emax [31] | combination Emax [32] | combination Emax [33] | combination Emax [34]
C[C@@H]1COCCN1c1cc(C2([S@](C)(=N)=O)CC2)nc(-c2ccnc3[nH]ccc23)n1 [AZD6738] + C1CC(C1)(C(=O)[O-])C(=O)[O-].N.N.[Pt+2] [Carboplatin] (first compound max 10 µM, 7x7, partner max 10 µM) | 0.0337 | -0.0271 | -0.0454 | -0.0146 | -0.0078 | 0.0982 | -0.0241 | -0.031 | -0.0267 | -0.0242 | -0.0303 | -0.0286 | -0.0383 | -0.0074 | -0.0837 | -0.0241 | -0.0607 | 0.723 | 0.974 | 0.381 | 0.919 | 0.917 | 0.925 | 0.747 | 0.847 | 0.894 | 0.327 | 0.733 | 0.378 | 0.879 | 0.375 | 0.402 | 0.922 | 0.425
CN(CCO)CC[C@H](CSc1ccccc1)Nc1ccc(S(=O)(=O)NC(=O)c2ccc(N3CCC([C@@H](O)c4ccccc4-c4ccc(Cl)cc4)CC3)cc2)cc1S(=O)(=O)C(F)(F)F [AZD4320] + CS(=O)(=O)CCNCc1ccc(-c2ccc3ncnc(Nc4ccc(OCc5cccc(F)c5)c(Cl)c4)c3c2)o1 [Lapatinib] (first compound max 1 µM, 7x7, partner max 10 µM) | 0.034 | -0.0006 | 0.0048 | 0.0603 | -0.0147 | 0.121 | -0.0086 | -0.03 | 0.137 | -0.0128 | -0.0553 | -0.0332 | 0.0765 | 0.0238 | 0.0547 | -0.0018 | 0.0604 | 0.529 | 0.97 | 0.36 | 1 | 0.923 | 0.956 | 0.961 | 0.552 | 0.905 | 0.693 | 0.546 | 0.407 | 0.777 | 0.934 | 0.942 | 0.258 | 0.909
C=CCn1c(=O)c2cnc(Nc3ccc(N4CCN(C)CC4)cc3)nc2n1-c1cccc(C(C)(C)O)n1 [AZD1775] + CCc1c2c(nc3ccc(O)cc13)-c1cc3c(c(=O)n1C2)COC(=O)[C@]3(O)CC [SN-38] (first compound max 1 µM, partner max 0.3 µM) | -0.0133 | -0.0252 | 0.0473 | -0.0446 | -0.0144 | -0.0145 | -0.0824 | 0.0873 | -0.0458 | 0.0317 | -0.0124 | -0.063 | 0.0049 | -0.0298 | -0.0222 | -0.0755 | -0.0252 | 0.946 | 1 | 0.466 | 0.983 | 1 | 1 | 0.825 | 0.953 | 0.953 | 0.689 | 0.755 | 0.399 | 1 | 0.793 | 0.703 | 0.961 | 0.416
CN(CCO)CC[C@H](CSc1ccccc1)Nc1ccc(S(=O)(=O)NC(=O)c2ccc(N3CCC([C@@H](O)c4ccccc4-c4ccc(Cl)cc4)CC3)cc2)cc1S(=O)(=O)C(F)(F)F [AZD4320] + Nc1ccn([C@@H]2O[C@H](CO)[C@@H](O)C2(F)F)c(=O)n1 [Gemcitabine] (first compound max 1 µM, 7x7, partner max 0.3 µM) | 0.0207 | -0.0094 | 0.063 | 0.0375 | -0.0239 | 0.0312 | -0.0009 | 0.0054 | -0.0365 | -0.0338 | 0.0469 | 0.0008 | 0.053 | -0.0377 | -0.0331 | 0.0107 | 0.0125 | 0.9 | 1 | 0.651 | 1 | 1 | 1 | 0.765 | 0.353 | 0.951 | 0.283 | 0.823 | 0.717 | 1 | 0.49 | 0.475 | 0.987 | 0.688
O=C(c1cc(Cc2n[nH]c(=O)c3ccccc23)ccc1F)N1CCN(C(=O)C2CC2)CC1 [Olaparib] + COc1nnc2ccc(N3CCC(c4ccc(OCCN5CCN(C)C(=O)[C@H]5C)cc4)CC3)nn12 [AZD5153] (first compound max 10 µM, 7x7, partner max 1 µM) | -0.0614 | -0.0634 | -0.0417 | 0.0275 | -0.0392 | 0.0168 | -0.0519 | -0.0063 | -0.0841 | -0.056 | -0.0554 | -0.0205 | 0.0315 | -0.0096 | -0.0656 | -0.0128 | -0.135 | 0.6 | 0.648 | 0.484 | 0.69 | 0.882 | 0.966 | 0.776 | 0.412 | 0.619 | 0.362 | 0.527 | 0.325 | 0.626 | 0.448 | 0.484 | 0.818 | 0.295
C[C@@H](Oc1cc(-c2cnn(C3CCNCC3)c2)cnc1N)c1c(Cl)ccc(F)c1Cl [Crizotinib] + CC1=C(C(=CC=C1)Cl)NC(=O)C2=CN=C(S2)NC3=CC(=NC(=N3)C)N4CCN(CC4)CCO [Dasatinib] (first compound max 10 µM, 7x7, partner max 2 µM) | 0.0479 | 0.0338 | -0.0273 | -0.0124 | -0.0149 | 0.0154 | 0.0129 | 0.0162 | -0.0447 | -0.0096 | 0.0376 | 0.0145 | -0.0251 | 0.0352 | 0.0025 | 0.105 | -0.0409 | 0.97 | 0.978 | 0.184 | 0.951 | 0.843 | 0.946 | 0.955 | 0.95 | 0.629 | 0.673 | 0.928 | 0.589 | 1 | 0.535 | 0.628 | 0.635 | 0.49
O=C(c1cc(Cc2n[nH]c(=O)c3ccccc23)ccc1F)N1CCN(C(=O)C2CC2)CC1 [Olaparib] + CC1(C)CCC(CN2CCN(c3ccc(C(=O)NS(=O)(=O)c4ccc(NCC5CCOCC5)c([N+](=O)[O-])c4)c(Oc4cnc5[nH]ccc5c4)c3)CC2)=C(c2ccc(Cl)cc2)C1 [Venetoclax] (first compound max 10 µM, 7x7, partner max 1 µM) | -0.0334 | 0.0183 | -0.0106 | 0.0243 | 0.0271 | -0.0224 | -0.0349 | -0.0133 | 0.0188 | -0.0514 | -0.0302 | -0.0238 | 0.0961 | -0.0223 | -0.0548 | 0.0261 | -0.052 | 0.193 | 0.318 | 0.211 | 0.29 | 0.841 | 0.964 | 0.526 | 0.172 | 0.558 | 0.105 | 0.109 | 0.158 | 0.567 | 0.124 | 0.112 | 0.46 | 0.241
N#Cc1cnc(Nc2cc(NC[C@H]3CNCCO3)c(C(F)(F)F)cn2)cn1 [SRA737] + Nc1ccn([C@@H]2O[C@H](CO)[C@@H](O)C2(F)F)c(=O)n1 [Gemcitabine] (first compound max 10 µM, 7x7, partner max 0.3 µM) | 0.0034 | -0.0522 | 0.0294 | -0.0197 | 0.0419 | 0.0504 | 0.0024 | 0.0559 | 0.0222 | 0.032 | 0.0436 | 0.0002 | 0.0325 | 0.0613 | 0.121 | -0.0384 | -0.0214 | 0.868 | 1 | 0.455 | 0.908 | 1 | 1 | 0.871 | 0.933 | 0.962 | 0.575 | 0.922 | 0.473 | 1 | 0.685 | 0.75 | 0.983 | 0.501
